These compounds were tested against Melanocortin receptor 4 (Homo sapiens, UniProt P32245).
Melanocortin receptor 4, sequence (P32245 whole entry): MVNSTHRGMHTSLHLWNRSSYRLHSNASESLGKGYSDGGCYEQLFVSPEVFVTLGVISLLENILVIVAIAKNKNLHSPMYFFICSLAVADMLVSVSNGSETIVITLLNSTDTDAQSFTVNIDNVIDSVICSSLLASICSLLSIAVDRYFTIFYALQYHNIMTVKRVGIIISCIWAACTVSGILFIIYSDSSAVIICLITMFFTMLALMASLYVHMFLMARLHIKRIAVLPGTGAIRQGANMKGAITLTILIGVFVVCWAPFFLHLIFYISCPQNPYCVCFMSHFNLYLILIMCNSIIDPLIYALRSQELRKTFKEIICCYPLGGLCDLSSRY

Row | Ki [nM] | Compound
1 | 74.1 | CN(Cc1cccnc1)Cc1ccccc1N1CCN(C(=O)[C@@H](Cc2ccc(Cl)cc2)NC(=O)[C@H]2Cc3ccccc3CN2)CC1
2 | 6.31 | CN(Cc1ccccc1N1CCN(C(=O)[C@@H](Cc2ccc(Cl)cc2)NC(=O)[C@H]2Cc3ccccc3CN2)CC1)C1CCCNC1 (some centres undefined) [NBI-58702]
3 | 13.5 | CC(Nc1cc[nH]c1)c1ccccc1N1CCN(C(=O)[C@@H](Cc2ccc(Cl)cc2)NC(=O)[C@H]2Cc3ccccc3CN2)CC1 (some centres undefined) [NBI-58704]
4 | 20 | C[C@@H]1CN(Cc2ccccc2N2CCN(C(=O)[C@@H](Cc3ccc(Cl)cc3)NC(=O)[C@H]3Cc4ccccc4CN3)CC2)[C@@H](C)CN1 [NBI-56297]

— BindingDB's records for doi:10.1124/jpet.105.083337 (Neurocrine Biosciences, 2005)
